Measurements from ChEMBL document CHEMBL4321809, “Structure-Reactivity Relationships on Substrates and Inhibitors of the Lysine Deacylase Sirtuin 2 from Schistosoma mansoni (SmSirt2)” (J Med Chem, 2019).
The source made the active and inactive calls. The calls are words filed in the database; no cut-off is given here.

Tests used:
[1] = target: T1, NAD-dependent protein deacetylase sirtuin-2 (Homo sapiens, UniProt Q8IXJ6); assay: Inhibition of human sirutin 2 assessed as inhibition of susbtrate demyristoylation at 20 uM using (Z)-(Myr)-Lys-AMC as substrate relative to control
T1 sequence (Q8IXJ6 whole entry): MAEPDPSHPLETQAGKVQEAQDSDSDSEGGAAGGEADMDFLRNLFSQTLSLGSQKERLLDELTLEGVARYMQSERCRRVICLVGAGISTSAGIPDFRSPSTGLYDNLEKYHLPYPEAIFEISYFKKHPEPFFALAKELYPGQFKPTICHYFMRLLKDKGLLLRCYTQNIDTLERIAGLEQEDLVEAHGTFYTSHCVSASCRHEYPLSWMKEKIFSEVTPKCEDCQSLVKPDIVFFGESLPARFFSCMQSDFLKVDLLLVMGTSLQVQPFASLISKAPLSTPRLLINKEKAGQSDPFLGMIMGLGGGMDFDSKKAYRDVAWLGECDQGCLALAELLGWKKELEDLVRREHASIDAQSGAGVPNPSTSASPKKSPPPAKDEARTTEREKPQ

[2] = target: T2, NAD-dependent protein deacetylase (Schistosoma mansoni) (UniProt T1VXA1); assay: Inhibition of recombinant Schistosoma mansoni sirtuin 2 (21 to 322 residues) expressed in Escherichia coli BL21(DE3) cells assessed as inhibition of substrate deacetylation at 20 uM using ZMAL as substrate relative to control
T2 sequence (whole entry): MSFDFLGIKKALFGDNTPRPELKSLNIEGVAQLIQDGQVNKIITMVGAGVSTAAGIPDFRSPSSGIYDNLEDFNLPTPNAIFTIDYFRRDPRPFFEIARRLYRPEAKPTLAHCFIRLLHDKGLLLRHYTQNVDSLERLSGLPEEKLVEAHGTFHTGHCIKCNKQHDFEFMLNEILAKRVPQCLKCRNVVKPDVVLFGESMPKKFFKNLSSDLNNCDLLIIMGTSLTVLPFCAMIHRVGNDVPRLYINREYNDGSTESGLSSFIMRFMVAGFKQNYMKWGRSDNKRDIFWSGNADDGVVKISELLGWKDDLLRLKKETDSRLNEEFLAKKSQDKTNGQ

[3] = target: T2, NAD-dependent protein deacetylase (Schistosoma mansoni); assay: (§1) Inhibition of recombinant Schistosoma mansoni sirtuin 2 (21 to 322 residues) expressed in Escherichia coli BL21(DE3) cells assessed as inhibition of substrate demyristoylation at 20 uM using (Z)-(Myr)-Lys-AMC as substrate relative to control
Schistosoma mansoni [4] = assay: Antiparasitic activity against adult Schistosoma mansoni Puerto Rico assessed as reduction in egg laying at 10 to 20 uM after 24 hrs by microscopic analysis; format: functional, organism-based
Schistosoma mansoni [5] = assay: Antiparasitic activity against Schistosoma mansoni Puerto Rico assessed as reduction in parasite viability at 10 to 20 uM after 72 hrs by microscopic analysis; format: functional, organism-based
[6] = Selectivity ratio of IC50 for N-terminal His6 tagged human sirtuin 2 (25 to 389 residues) to IC50 for recombinant Schistosoma mansoni sirtuin 2 (21 to 322 residues) expressed in Escherichia coli BL21(DE3) cells
Schistosoma mansoni [7] = assay: Antiparasitic activity against adult Schistosoma mansoni Puerto Rico assessed as reduction in worm pairing at 10 to 20 uM after 24 hrs by microscopic analysis; format: functional, organism-based
[8] = target: T1, NAD-dependent protein deacetylase sirtuin-2; assay: Inhibition of N-terminal His6 tagged human sirtuin 2 (25 to 389 residues) using Cbz-Lys(acetyl)-AMC as substrate after 4 hrs in presence of NAD+ by homogeneous fluorescence based analysis
[9] = target: T2, NAD-dependent protein deacetylase (Schistosoma mansoni); assay: as §1, with “as susbtrate after 1 hr in presence of NAD+ by homogeneous fluorescence based analysis” for “as substrate”
[10] = target: T1, NAD-dependent protein deacetylase sirtuin-2; assay: Inhibition of N-terminal His6 tagged human sirtuin 2 (25 to 389 residues) assessed as inhibition of substrate demyristoylation using (Z)-(Myr)-Lys-AMC as susbtrate after 4 hrs in presence of NAD+ by homogeneous fluorescence based analysis
[11] = target: T3, NAD-dependent protein deacetylase (Schistosoma mansoni, UniProt T1VXA1); assay: Inhibition of recombinant Schistosoma mansoni sirtuin 2 (21 to 322 residues) expressed in Escherichia coli BL21(DE3) cells using ZMAL as substrate after 1 hr in presence of NAD+ by homogeneous fluorescence based analysis
T3 sequence (T1VXA1 whole entry): T2 sequence (whole entry)

[12] = target: T1, NAD-dependent protein deacetylase sirtuin-2; assay: Inhibition of N-terminal His6 tagged human sirtuin 2 (25 to 389 residues) at 50 uM using Cbz-Lys(acetyl)-AMC as substrate after 4 hrs in presence of NAD+ by homogeneous fluorescence based analysis relative to control
[13] = target: T1, NAD-dependent protein deacetylase sirtuin-2; assay: Inhibition of N-terminal His6 tagged human sirtuin 2 (25 to 389 residues) at 25 uM using Cbz-Lys(acetyl)-AMC as substrate after 4 hrs in presence of NAD+ by homogeneous fluorescence based analysis relative to control
[14] = target: T3, NAD-dependent protein deacetylase; assay: Inhibition of recombinant Schistosoma mansoni sirtuin 2 (21 to 322 residues) expressed in Escherichia coli BL21(DE3) cells assessed as inhibition of substrate demyristoylation using (Z)-(Myr)-Lys-AMC as susbtrate after 1 hr in presence of NAD+ by homogeneous fluorescence based analysis
[15] = target: T1, NAD-dependent protein deacetylase sirtuin-2; assay: Inhibition of N-terminal His6 tagged human sirtuin 2 (25 to 389 residues) assessed as inhibition of substrate demyristoylation at 20 uM using (Z)-(Myr)-Lys-AMC as susbtrate after 4 hrs in presence of NAD+ by homogeneous fluorescence based analysis relative to control
HL-60 = assay: Cytotoxicity against human HL60 cells at 10 uM after 72 hrs by Cell titer MTS dye based analysis; details: hl-60, 72 h

Work on `Cc1cc(C)nc(SCC(=O)Nc2ncc(Cc3cccc4ccccc34)s2)n1` yielded an inhibition at 20 µM [1] of less than 15%, an inhibition [2] of less than 15% and an inhibition [3] of less than 15%.
With `COc1cc(OC)cc(Sc2ccc(C(c3ccccc3)N(C)c3ncc4c(N)nc(N)nc4n3)cc2)c1` (stereo not drawn) the inhibition (Schistosoma mansoni [4]) was “Active”, the inhibition (Schistosoma mansoni [5]) was “Active” and the Ratio IC50 [6] was 10. For the same molecule, the inhibition (Schistosoma mansoni [7]) was “Active”, the IC50 [8] was 21.5 µM and the inhibition [9] was less than 15%. For the same molecule, the IC50 [10] was 15.6 µM and the IC50 [11] was 2 µM.
In the case of `O=C(c1cc2cc(Cl)ccc2[nH]1)N1CCCCC1c1cccnc1` (stereo not drawn), the inhibition at 50 µM [12] is reported as less than 15% and the IC50 [11] is reported as 18.2 µM.
In the case of `COc1ccc(Oc2ccc(C(C)N(C)c3ncc4c(N)nc(N)nc4n3)cc2)cc1` (stereo not drawn), the inhibition (Schistosoma mansoni [4]) is reported as “Active”, the inhibition (Schistosoma mansoni [5]) is reported as “Active” and the inhibition (Schistosoma mansoni [7]) is reported as “Active”. For the same molecule, the Imax [9] was 45%, the inhibition at 25 µM [13] was 21.9% and the inhibition at 50 µM [12] was 24.1%. The IC50 [11] was 23.7 µM, the IC50 [14] was 16.8 µM and the inhibition at 20 µM [15] was less than 15%. For the same molecule, the Activity (HL-60) was “Non-Toxic”.
